According to patent publication US11472766B2, “Lipid nanoparticle composition” (Suzhou Abogen Biosciences Co., Ltd., priority 2020, dated 2022):

How the values were obtained:
[1] = Lipid nanoparticle size by dynamic light scattering (Malvern Zetasizer Nano ZS); format: physicochemical; settings: LNP: cationic lipid/DSPC/cholesterol/PEG-lipid 50:10:38.5:1.5, hEPO mRNA
Procedure, shortened: (§1)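 Lipids 50:10:38.5:1.5 (cationic:DSPC:chol:PEG) in EtOH + mRNA in citrate pH 4, 1:3 vol, microfluidic, 9–30 mL/min; total lipid:mRNA ~10:1–30:1 w/w. Dialysis to DPBS, 0.2 μm filter. DLS 173° backscatter; Ribogreen encapsulation.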

[2] = Encapsulation efficiency of lipid nanoparticles (Quant-it Ribogreen RNA quantification assay); format: physicochemical; settings: LNP encapsulating hEPO mRNA
Procedure, shortened: as §1

[3] = system: human erythropoietin (hEPO) mRNA; assay: Animal study: hEPO expression after tail vein injection of LNPs encapsulating hEPO mRNA (serum ELISA); format: in vivo; settings: hEPO level, female ICR mice, 0.5 mg/kg, 6 hours post administration; for Expression at 6 h (μg/ml): class symbols, Table 3; for Expression at 6 h: Table 2
Procedure, shortened: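 Female ICR mice (6-8 weeks) received LNPs carrying hEPO mRNA by tail vein injection at 0.5 mg/kg, with MC3 LNPs dosed the same way as positive control. Blood was drawn at set times (e.g., 6 h) and serum separated. hEPO was quantified by ELISA and reported as μg/ml.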

[4] = Apparent pKa of LNP formulations (TNS fluorescence assay); settings: LNP cationic lipid/DSPC/cholesterol/DMG-PEG 50/10/38.5/1.5 mol %
Procedure: The apparent pKa of each formulation was determined using an assay based on fluorescence of 2-(p-toluidino)-6-napthalene sulfonic acid (TNS). LNP formulations comprising of cationic lipid/DSPC/cholesterol/DMG-PEG (50/10/38.5/1.5 mol %) in PBS were prepared as described above. TNS was prepared as a 300 uM stock solution in distilled water. LNP formulations were diluted to 0.1 mg/ml total lipid in 3 mL of buffered solutions containing 50 mM sodium citrate, 50 mM sodium phosphate, 50 mM sodium borate, and 30 mM sodium chloride where the pH ranged from 3 to 9. An aliquot of the TNS solution was added to give a final concentration of 0.1 mg/ml and following vortex mixing fluorescence intensity was measured at room temperature in a Molecular Devices Spectramax iD3 spectrometer using excitation and mission wavelengths of 325 nm and 435 nm. A sigmoidal best fit analysis was applied to the fluorescence data and the pKa value was measured as the pH giving rise to half-maximal fluorescent intensity.

CCCCCCC(CCCCCC)CC(=O)NCCCCCN(CCCCCOC(=O)CC(CCCCCC)CCCCCC)CCN(CCO)C1CCCCC1 [Compound 152]
polydispersity ([1]; Table 3): 0.026 | size nm ([1]; Table 3): 92.17 nm | Encapsulation Efficiency ([2]; Table 3): 88.2% | Expression at 6 h (μg/ml) [3]: A (≥2) | Apparant Pka ([4]; Table 3): 6.686

CCCCCCCCC(CCCCCCCC)COC(=O)CCCCCN(CCCCCC(=O)OCC(CCCCCCCC)CCCCCCCC)CCN(CCC)C1CCCC1O (stereo not shown) [Compound 68]
polydispersity ([1]; Table 3): 0.052 | size nm ([1]; Table 3): 56.96 nm | Encapsulation Efficiency ([2]; Table 3): 80.1% | Expression at 6 h (μg/ml) [3]: C (≥0.1 and <1) | Apparant Pka ([4]; Table 3): 6.279

CCCCCCCCC(CCCCCC)COC(=O)CCCCCN(CCCCCC(=O)OCC(CCCCCC)CCCCCCCC)CCN(C)CCO (stereo not shown) [Compound B]
polydispersity ([1]; Table 2): 0.060 | size nm ([1]; Table 2): 79.0 nm | Encapsulation Efficiency ([2]; Table 2): 100.0% | Expression at 6 h [3]: 0.44 µg/mL | Apparant Pka ([4]; Table 2): 7.33

CCCCCCCCC(CCCCCC)COC(=O)CCCCCN(CCCCCC(=O)OCC(CCCCCC)CCCCCCCC)CCN(CCCCO)C1CCC1 (stereo not shown) [Compound 29]
polydispersity ([1]; Table 3): 0.078 | size nm ([1]; Table 3): 85.17 nm | Encapsulation Efficiency ([2]; Table 3): 97.2% | Expression at 6 h (μg/ml) [3]: A (≥2) | Apparant Pka ([4]; Table 3): 6.477

CCCCCCCCC(CCCCCC)COC(=O)CCCCCN(CCCCCC(=O)OCC(CCCCCC)CCCCCCCC)CCN(C1CCCCC1)C1CC(O)C1 (stereo not shown) [Compound 92]
polydispersity ([1]; Table 3): 0.04 | size nm ([1]; Table 3): 66.94 nm | Encapsulation Efficiency ([2]; Table 3): 95.2% | Expression at 6 h (μg/ml) [3]: B (≥1 and <2) | Apparant Pka ([4]; Table 3): 6.331

CCCCCCCCC(CCCCCC)COC(=O)CCCCCN(CCCCCC(=O)OCC(CCCCCC)CCCCCCCC)CCN(CCO)c1ccccc1 (stereo not shown) [Compound 7]
polydispersity ([1]; Table 2): 0.110 | size nm ([1]; Table 2): 149.1 nm | Encapsulation Efficiency ([2]; Table 2): 47.0% | Expression at 6 h [3]: 0.00 µg/mL | Apparant Pka ([4]; Table 2): 5.39

CCCCCCC(CCCCCC)CCCCCC(=O)OCCCCCN(CCCCCOC(=O)CCCCCC(CCCCCC)CCCCCC)CCN(CCO)C1CCC1 [Compound 86]
size nm ([1]; Table 3): 76.56 nm | Encapsulation Efficiency ([2]; Table 3): 93.8% | Expression at 6 h (μg/ml) [3]: C (≥0.1 and <1) | Apparant Pka ([4]; Table 3): 6.32

CCCCCCCCC(CCCCCC)COC(=O)CCCCCCN(CCCCCCC(=O)OCC(CCCCCC)CCCCCCCC)CCN(CCO)C1CCC1 (stereo not shown) [Compound 37]
polydispersity ([1]; Table 3): 0.034 | size nm ([1]; Table 3): 84.26 nm | Encapsulation Efficiency ([2]; Table 3): 97.0% | Expression at 6 h (μg/ml) [3]: A (≥2) | Apparant Pka ([4]; Table 3): 6.205

CCCCCCCCC(CCCCCC)C(=O)OCCCCCCCCCN(CCCCCCCCCOC(=O)C(CCCCCC)CCCCCCCC)CCN(CCO)C1CCC1 (stereo not shown) [Compound 44]
polydispersity ([1]; Table 3): 0.063 | size nm ([1]; Table 3): 83.85 nm | Encapsulation Efficiency ([2]; Table 3): 97.5% | Expression at 6 h (μg/ml) [3]: B (≥1 and <2) | Apparant Pka ([4]; Table 3): 6.049

CCCCCCCCC(CCCCCC)CNC(=O)NCCCCN(CCCCNC(=O)NCC(CCCCCC)CCCCCCCC)CCN(CCO)C1CCCCC1 (stereo not shown) [Compound 122]
polydispersity ([1]; Table 3): 0.044 | size nm ([1]; Table 3): 57.81 nm | Encapsulation Efficiency ([2]; Table 3): 89.4% | Expression at 6 h (μg/ml) [3]: A (≥2) | Apparant Pka ([4]; Table 3): 7.048
